The values that follow come from ChEMBL document CHEMBL1201862, “PubChem BioAssay data set” (2004).

Among the test systems are Hs-578T; HT-29; MDA-MB-435; COLO 205; NCI/ADR-RES; T47D; KM12; DU-145; HCC 2998; NCI-H23; OVCAR-4; SF-539; A498; SK-MEL-2; MCF7; SW-620; OVCAR-5; M14; HOP-62; OVCAR-3.
What all share (assay): NCI tumour cell line growth inhibition, 48 h

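Values below derive from 48-hour exposures of cells grown in 96-well plates, with endpoints linearly interpolated between the two concentrations bracketing the appropriate inhibition level. Abbreviation: GI50, concentration required for 50% inhibition of growth.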 Activity calls are given as the source filed them. Rule as the data show it: active = GI50 up to about 1.1 µM and inactive = higher.

For the molecule `CC(C)(C)C1=CC(C)(n2[nH]c(=O)n(-c3ccccc3)c2=O)C=C(C(C)(C)C)C1=O`, the GI50 in the assay on Hs-578T is > 100 µM (inactive); with HT-29, > 100 µM (inactive); in the assay on MDA-MB-435, > 100 µM (inactive); in the assay on COLO 205, > 100 µM (inactive); in the assay on NCI/ADR-RES, > 100 µM (inactive); with T47D it was 59.6 µM (inactive). The GI50 in the assay on KM12, in the assay on DU-145, in the assay on HCC 2998, in the assay with NCI-H23, in the assay with OVCAR-4 and with SF-539 was > 100 µM (inactive) in each case. For the same molecule, the GI50 in the assay on A498, with SK-MEL-2, in the assay on MCF7 and with SW-620 was > 100 µM (inactive) throughout.
Take `C=C1C(C(=O)OC)[C@H]1C(=O)OC` (some centres undefined): the GI50 in the assay with Hs-578T, in the assay with HT-29, in the assay on MDA-MB-435, with COLO 205, in the assay with OVCAR-5 and in the assay with NCI/ADR-RES was > 100 µM (inactive) each time. Moreover, the GI50 with T47D, with KM12, in the assay on DU-145, in the assay with HCC 2998, in the assay on M14 and in the assay with HOP-62 was > 100 µM (inactive) each time. Besides, the GI50 in the assay on NCI-H23, in the assay on OVCAR-4, with OVCAR-3, in the assay on SF-539, with A498 and with SK-MEL-2 was > 100 µM (inactive) in each case. For the same molecule, the GI50 with MCF7 and with SW-620 was > 100 µM (inactive) in each case.
As to `CCN(CC)CCc1c2c(nc3ccccc13)C(=O)c1cccnc1C2=O`, the GI50 in the assay with Hs-578T is 4.99 µM (inactive); in the assay with HT-29, 3.31 µM (inactive); in the assay on MDA-MB-435 it was 1.93 µM (inactive); in the assay on COLO 205, 1.58 µM (inactive); with OVCAR-5, 4.63 µM (inactive); with NCI/ADR-RES it was 4.28 µM (inactive). Further, the GI50 in the assay with T47D is 1.96 µM (inactive); with KM12, 0.857 µM (active); in the assay with DU-145, 0.344 µM (active); in the assay with HCC 2998, 2.54 µM (inactive); with M14, 0.454 µM (active); with HOP-62, 2.44 µM (inactive). Also, the GI50 is 3.08 µM (inactive) in the assay with NCI-H23; 0.726 µM (active) in the assay on OVCAR-4; 0.055 µM (active) in the assay with OVCAR-3; 1.97 µM (inactive) in the assay with A498; 2.94 µM (inactive) with SK-MEL-2; 0.345 µM (active) in the assay on MCF7. Besides, in the assay on SW-620, the GI50 is 0.424 µM (active).
Turning to `Cc1ccc(NCC2CC/C(=C\c3ccc(Cl)cc3)C2=O)cc1` (centres undefined), the GI50 was 29 µM (inactive) with Hs-578T; 12.4 µM (inactive) with HT-29; 14.4 µM (inactive) in the assay with MDA-MB-435; 14.8 µM (inactive) with COLO 205; 22 µM (inactive) with OVCAR-5; 33.7 µM (inactive) with NCI/ADR-RES. Moreover, the GI50 in the assay on T47D was 15.1 µM (inactive); in the assay on KM12 it was 5.66 µM (inactive); in the assay with DU-145 it was 30.1 µM (inactive); with HCC 2998 it was 30.6 µM (inactive); in the assay on M14, 13.4 µM (inactive); with HOP-62, 50 µM (inactive). For the same molecule, the GI50 is 20.6 µM (inactive) in the assay with NCI-H23; 24.4 µM (inactive) in the assay with OVCAR-4; 14.3 µM (inactive) in the assay on OVCAR-3; 23.7 µM (inactive) in the assay on SF-539; 30.7 µM (inactive) with A498; 2.83 µM (inactive) in the assay with MCF7. Besides, the GI50 with SW-620 was 3.67 µM (inactive).
Regarding `COc1cc(COC(=O)NC(Cc2cccs2)C(=O)O)c([N+](=O)[O-])cc1OC` (centres undefined), the GI50 in the assay on Hs-578T, in the assay on HT-29, with MDA-MB-435, in the assay with COLO 205, in the assay with OVCAR-5 and in the assay on NCI/ADR-RES was > 100 µM (inactive) each time. Further, the GI50 with T47D, in the assay on KM12, in the assay with DU-145, with HCC 2998, in the assay with M14 and in the assay with HOP-62 was > 100 µM (inactive) in each case. Also, the GI50 with NCI-H23 was > 100 µM (inactive); in the assay on OVCAR-3, > 100 µM (inactive); in the assay with SF-539, > 100 µM (inactive); in the assay with A498, 39.3 µM (inactive); with MCF7, > 100 µM (inactive); in the assay with SW-620, > 100 µM (inactive).
As for `O=C1NC2CCCCC2NC1=C(C(=O)c1ccccc1)C(=O)c1ccccc1` (centres undefined), the GI50 with Hs-578T was 62.8 µM (inactive); with HT-29, 36.8 µM (inactive); in the assay on MDA-MB-435, 46.6 µM (inactive); in the assay on COLO 205, 32.8 µM (inactive); in the assay with OVCAR-5, > 100 µM (inactive); with NCI/ADR-RES it was 29.2 µM (inactive). For the same molecule, the GI50 with T47D is > 100 µM (inactive); with KM12, 42.7 µM (inactive); in the assay with DU-145 it was > 100 µM (inactive); in the assay with HCC 2998, 70.8 µM (inactive); with M14, 66.4 µM (inactive); in the assay on HOP-62 it was 52.6 µM (inactive). For the same molecule, the GI50 is 22.4 µM (inactive) in the assay on NCI-H23; 67.5 µM (inactive) in the assay on OVCAR-3; 43.2 µM (inactive) in the assay with SF-539; > 100 µM (inactive) with A498; 33.6 µM (inactive) with SK-MEL-2; 16.9 µM (inactive) with MCF7. In addition, the GI50 with SW-620 is 39.3 µM (inactive).
Turning to `COc1cc(C2NCCC(c3ccccc3)(c3ccccc3)N2)cc(OC)c1OC` (centres undefined), the GI50 in the assay on Hs-578T was 26.1 µM (inactive); in the assay on HT-29, 4.66 µM (inactive); in the assay on MDA-MB-435 it was 18.5 µM (inactive); in the assay with COLO 205, 16.1 µM (inactive); with NCI/ADR-RES it was > 100 µM (inactive); in the assay on T47D, 58.2 µM (inactive). The GI50 in the assay with KM12 was 12.6 µM (inactive); in the assay on DU-145, 97.3 µM (inactive); in the assay with HCC 2998, 20.7 µM (inactive); in the assay with M14 it was 11.7 µM (inactive); in the assay on HOP-62, 34 µM (inactive); with NCI-H23, 23.4 µM (inactive). For the same molecule, the GI50 in the assay on OVCAR-4 was 81.1 µM (inactive); in the assay on SF-539 it was 11.3 µM (inactive); in the assay on A498, 18.7 µM (inactive); in the assay with MCF7, 20.1 µM (inactive); with SW-620, 19 µM (inactive).
As for `O=C(CSCC(=O)N/N=C\c1cccc([N+](=O)[O-])c1)N/N=C\c1cccc([N+](=O)[O-])c1`, the GI50 is 45.4 µM (inactive) with Hs-578T; > 100 µM (inactive) with HT-29; > 100 µM (inactive) with MDA-MB-435; > 100 µM (inactive) in the assay on COLO 205; 19.2 µM (inactive) with NCI/ADR-RES; 34.1 µM (inactive) in the assay with T47D. Besides, the GI50 with KM12 is > 100 µM (inactive); in the assay on DU-145 it was 54.1 µM (inactive); in the assay on HCC 2998 it was 30.9 µM (inactive); in the assay with M14, > 100 µM (inactive); with HOP-62, 2.01 µM (inactive); in the assay on NCI-H23, 14.2 µM (inactive). Also, the GI50 in the assay with OVCAR-4 was > 100 µM (inactive); in the assay on OVCAR-3 it was 22.9 µM (inactive); in the assay on SF-539, 24 µM (inactive); in the assay with A498, 41.1 µM (inactive); with SK-MEL-2, 37.3 µM (inactive); with MCF7, 38.5 µM (inactive). The GI50 in the assay with SW-620 was > 100 µM (inactive).
Regarding `O=C(/C=c1\oc(=O)/c(=C/C(=O)c2ccc(Cl)cc2)oc1=O)c1ccc(Cl)cc1`, the GI50 was 34.2 µM (inactive) with Hs-578T; > 100 µM (inactive) with HT-29; > 100 µM (inactive) with MDA-MB-435; > 100 µM (inactive) with COLO 205; > 100 µM (inactive) with OVCAR-5; > 100 µM (inactive) in the assay on NCI/ADR-RES. Besides, the GI50 with T47D was 53.7 µM (inactive); in the assay with KM12, > 100 µM (inactive); with DU-145 it was > 100 µM (inactive); in the assay with HCC 2998, > 100 µM (inactive); in the assay on M14, > 100 µM (inactive); in the assay on HOP-62, > 100 µM (inactive). Besides, the GI50 with NCI-H23 was > 100 µM (inactive); with OVCAR-4, 39.6 µM (inactive); with OVCAR-3, 49.9 µM (inactive); in the assay on SF-539 it was > 100 µM (inactive); in the assay with A498, > 100 µM (inactive); with SK-MEL-2 it was > 100 µM (inactive). For the same molecule, in the assay on MCF7, the GI50 is > 100 µM (inactive).
Turning to `CC1=NN(c2cccc(S(=O)(=O)O)c2)C2(C1)C(Cl)C(=O)N2c1nc2ccccc2s1` (centres undefined), the GI50 in the assay on Hs-578T is 11.7 µM (inactive); in the assay on HT-29, 7.98 µM (inactive); in the assay on MDA-MB-435, 6.85 µM (inactive); in the assay with COLO 205, 8.3 µM (inactive); in the assay with OVCAR-5, 13.4 µM (inactive); in the assay on NCI/ADR-RES, 4.99 µM (inactive). The GI50 was 9.35 µM (inactive) in the assay on T47D; 9.23 µM (inactive) in the assay with KM12; 11.3 µM (inactive) in the assay on DU-145; 15.1 µM (inactive) with HCC 2998; 8.65 µM (inactive) in the assay on M14; 5.75 µM (inactive) in the assay on HOP-62. For the same molecule, the GI50 in the assay with NCI-H23 is 4.61 µM (inactive); with OVCAR-4, 4.74 µM (inactive); in the assay on OVCAR-3, 2.94 µM (inactive); in the assay on A498 it was 18.2 µM (inactive); in the assay on SK-MEL-2, 4 µM (inactive); in the assay with MCF7 it was 8.89 µM (inactive). For the same molecule, the GI50 in the assay on SW-620 is 4.54 µM (inactive).
In the case of `CCOC(=O)/C1=C(\C)N(c2ccc(C)cc2)C(=O)c2ccccc2C(=O)c2c(OC(C)=O)ccc(OC(C)=O)c21`, the GI50 is 16.6 µM (inactive) in the assay on Hs-578T; 14.6 µM (inactive) in the assay on HT-29; 15.3 µM (inactive) in the assay with MDA-MB-435; 13.5 µM (inactive) in the assay with COLO 205; 21.9 µM (inactive) with OVCAR-5; 19.2 µM (inactive) in the assay with NCI/ADR-RES. The GI50 in the assay on T47D was 13.7 µM (inactive); with KM12 it was 15 µM (inactive); in the assay with DU-145, 31.8 µM (inactive); with M14, 18.4 µM (inactive); with HOP-62 it was 18.5 µM (inactive); with NCI-H23 it was 19.9 µM (inactive). Also, the GI50 was 12.8 µM (inactive) in the assay with OVCAR-4; 16.5 µM (inactive) with OVCAR-3; 25.8 µM (inactive) in the assay on SF-539; 67.1 µM (inactive) with A498; 24 µM (inactive) with SK-MEL-2; 26.1 µM (inactive) in the assay on MCF7. Moreover, in the assay on SW-620, the GI50 was 34.7 µM (inactive).
